# Experiments:
# FLK-1 receptor = molecular target: T1, FLK-1 receptor (Mus musculus, UniProt P35918); assay: FLK-1 ELISA (kinase activity of the FLK-1 receptor in FLK-1/NIH3T3 cells, VEGF stimulated); format: cell-based; parameters: concentration or dose not given beside the values
# T1 construct: expressed in transfected cells; host or cells: NIH3T3 C7#3
# How it was run: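 FLK-1-expressing NIH3T3 C7#3 cells, starved overnight in 0.1% FBS medium, were treated with compounds at a 1:200 final dilution (0.5% DMSO) for 2 h at 37 °C, with VEGF stimulation. FLK-1 kinase activity was read by ELISA on anti-rabbit IgG plates using affinity-purified anti-FLK-1 antiserum.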
# PDGF-R = PDGF-R (Homo sapiens, UniProt P09619); assay: PDGF-R ELISA; format: cell-based
# Sequence of PDGF-R (P09619 33-1106, species assumed): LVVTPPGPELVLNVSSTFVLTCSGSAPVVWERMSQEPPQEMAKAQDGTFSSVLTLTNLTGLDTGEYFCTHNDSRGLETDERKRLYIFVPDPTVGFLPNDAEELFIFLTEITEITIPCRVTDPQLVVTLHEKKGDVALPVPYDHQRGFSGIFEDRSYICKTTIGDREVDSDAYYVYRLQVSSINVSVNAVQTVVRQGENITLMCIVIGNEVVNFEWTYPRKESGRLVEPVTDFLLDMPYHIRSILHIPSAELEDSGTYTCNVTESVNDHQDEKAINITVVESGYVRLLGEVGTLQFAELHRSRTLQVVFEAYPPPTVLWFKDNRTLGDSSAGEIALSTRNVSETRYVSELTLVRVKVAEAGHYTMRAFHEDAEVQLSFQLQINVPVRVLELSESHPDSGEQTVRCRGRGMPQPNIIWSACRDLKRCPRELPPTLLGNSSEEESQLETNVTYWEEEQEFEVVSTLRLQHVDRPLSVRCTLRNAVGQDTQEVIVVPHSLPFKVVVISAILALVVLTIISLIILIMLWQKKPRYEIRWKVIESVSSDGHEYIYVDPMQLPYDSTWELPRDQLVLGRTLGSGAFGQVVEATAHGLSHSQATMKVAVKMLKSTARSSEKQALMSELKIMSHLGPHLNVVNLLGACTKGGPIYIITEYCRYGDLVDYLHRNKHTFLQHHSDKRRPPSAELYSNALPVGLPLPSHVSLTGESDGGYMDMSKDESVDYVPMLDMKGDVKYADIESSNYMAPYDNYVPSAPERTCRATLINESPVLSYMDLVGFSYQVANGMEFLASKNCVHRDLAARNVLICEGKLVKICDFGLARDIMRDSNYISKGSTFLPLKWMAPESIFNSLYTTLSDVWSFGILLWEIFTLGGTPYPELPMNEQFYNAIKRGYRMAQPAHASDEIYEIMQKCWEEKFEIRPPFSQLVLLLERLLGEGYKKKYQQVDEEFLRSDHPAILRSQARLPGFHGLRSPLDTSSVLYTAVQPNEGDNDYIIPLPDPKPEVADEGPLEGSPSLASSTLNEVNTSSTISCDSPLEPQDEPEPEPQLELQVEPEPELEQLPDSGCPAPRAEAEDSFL
# Excerpt: A PDGF-R ELISA is described in International Patent Publication No. WO 96/40116, published December 19, 1996 by Tang et al.
# T1 sequence (P35918 20-1345): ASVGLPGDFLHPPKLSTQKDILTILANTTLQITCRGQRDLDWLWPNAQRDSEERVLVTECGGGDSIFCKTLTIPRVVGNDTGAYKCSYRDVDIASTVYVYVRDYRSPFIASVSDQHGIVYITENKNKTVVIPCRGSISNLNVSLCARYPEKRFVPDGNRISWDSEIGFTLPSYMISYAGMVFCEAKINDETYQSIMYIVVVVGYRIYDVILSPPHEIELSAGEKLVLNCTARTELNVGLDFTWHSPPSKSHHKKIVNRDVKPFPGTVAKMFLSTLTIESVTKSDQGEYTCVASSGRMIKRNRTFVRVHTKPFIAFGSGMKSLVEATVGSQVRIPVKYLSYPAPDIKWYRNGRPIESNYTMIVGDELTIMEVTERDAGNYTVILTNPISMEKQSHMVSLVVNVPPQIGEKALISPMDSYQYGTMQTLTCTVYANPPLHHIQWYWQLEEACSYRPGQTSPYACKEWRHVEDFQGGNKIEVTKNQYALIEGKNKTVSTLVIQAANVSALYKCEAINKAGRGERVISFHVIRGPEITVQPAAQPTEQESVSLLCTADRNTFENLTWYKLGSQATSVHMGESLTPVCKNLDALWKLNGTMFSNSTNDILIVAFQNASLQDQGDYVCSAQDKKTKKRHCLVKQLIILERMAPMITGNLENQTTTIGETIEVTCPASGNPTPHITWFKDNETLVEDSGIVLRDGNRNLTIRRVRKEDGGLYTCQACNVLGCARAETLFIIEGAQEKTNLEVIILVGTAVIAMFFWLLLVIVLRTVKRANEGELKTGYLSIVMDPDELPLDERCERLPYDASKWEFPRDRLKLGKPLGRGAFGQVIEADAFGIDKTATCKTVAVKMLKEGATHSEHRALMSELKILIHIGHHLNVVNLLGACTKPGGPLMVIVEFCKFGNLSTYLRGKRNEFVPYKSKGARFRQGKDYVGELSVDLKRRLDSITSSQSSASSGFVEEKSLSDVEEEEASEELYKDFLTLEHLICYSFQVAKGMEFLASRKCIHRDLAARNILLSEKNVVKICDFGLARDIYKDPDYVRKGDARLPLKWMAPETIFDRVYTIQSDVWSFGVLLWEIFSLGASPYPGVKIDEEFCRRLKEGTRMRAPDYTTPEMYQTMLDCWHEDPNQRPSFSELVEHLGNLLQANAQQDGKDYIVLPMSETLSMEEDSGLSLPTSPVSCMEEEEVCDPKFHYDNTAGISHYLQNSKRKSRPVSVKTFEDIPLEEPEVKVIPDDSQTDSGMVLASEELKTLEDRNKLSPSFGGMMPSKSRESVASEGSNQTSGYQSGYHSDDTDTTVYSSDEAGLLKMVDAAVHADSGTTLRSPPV
Structure (SMILES),Fik Kinase %Inhibition (FLK-1 receptor) [%],PDGF Kinase %Inhibition (PDGF-R) [%]
CCc1ccc(C=C2C(=O)Nc3ccc(Br)c(C)c32)s1 [10726/C10],5.5,16.4
Cc1cc(C=C2C(=O)Nc3ccc(S(=O)(=O)Nc4ccc(C(F)(F)F)cc4)cc32)cc(C(C)(C)C)c1O [10726/E04],8.1,12.6
CCN(CC)c1ccc(C=C2C(=O)Nc3ccc(I)cc32)cc1 [10727/B02],2.4,-10.3
CNS(=O)(=O)c1ccc2c(c1)C(=Cc1cc(O)c3c(c1O)CCCC3)C(=O)N2 [10726/D07],-26.9,-81.0
Cc1cc(C=C2C(=O)Nc3ccc(CCCl)cc32)cc(C(C)(C)C)c1O [10726/G04],9.7,14.5
COc1cccc(C=C2C(=O)Nc3ccc(Br)c(C)c32)c1OC [10727/C11],-25.6,22.4
CCN(CC)c1ccc(C=C2C(=O)Nc3ccc(Br)c(C)c32)cc1 [10727/C02],-2.0,-12.5
CCN(CC)c1ccc(C=C2C(=O)Nc3ccc(S(=O)(=O)NC)cc32)cc1 [10727/D02],3.2,5.7
CCc1ccc(C=C2C(=O)Nc3ccc(S(=O)(=O)Nc4ccc(C(F)(F)F)cc4)cc32)s1 [10726/E10],16.5,37.9
Cc1c(Br)ccc2c1C(=Cc1cc3c(cc1Cl)OCO3)C(=O)N2 [10727/C06],5.2,12.3
CNS(=O)(=O)c1ccc2c(c1)C(=C1C(=O)Nc3ccc(F)cc31)C(=O)N2 [10726/D08],12.1,22.1
CCc1ccc(C=C2C(=O)Nc3ccc(CCCl)cc32)s1 [10726/G10],10.5,-7.0
O=C1Nc2c(Br)cc(Br)cc2C1=Cc1cc(O)ccc1O [10727/A10],-6.4,18.1
CCOC(=O)c1[nH]c(C=C2C(=O)Nc3ccc(CCCl)cc32)c(C(=O)OC)c1C [10726/G03],11.3,4.3
CCN(CC)c1ccc(C=C2C(=O)Nc3c(Br)cc(Br)cc32)cc1 [10727/A02],-1.3,-10.3
O=C1Nc2ccc(I)cc2C1=Cc1cc2c(cc1Cl)OCO2 [10727/B06],-3.9,6.4
COc1ccc(C=C2C(=O)Nc3ccc(S(=O)(=O)Nc4ccc(C(F)(F)F)cc4)cc32)cc1 [10726/E11],16.2,30.3
O=C1Nc2ccc(S(=O)(=O)N3CCOCC3)cc2C1=Cc1cc(O)c2c(c1O)CCCC2 [10726/F07],9.6,-99.4
CCc1cc(CC)c(C=C2C(=O)Nc3ccc(I)cc32)[nH]1 [10727/B03],-13.4,-7.4

Structure (SMILES),Fik Kinase %Inhibition (FLK-1 receptor) [%],PDGF Kinase %Inhibition (PDGF-R) [%]
Cc1cn(C)cc1C=C1C(=O)Nc2ccc(CCCl)cc21 [10726/G06],7.0,-26.6
O=C1Nc2ccc(I)cc2C1=Cc1ccccc1Sc1ccc(Cl)cc1 [10727/B05],10.5,9.4
Cc1c(Br)ccc2c1C(=Cc1ccc(C#N)cc1)C(=O)N2 [10727/C09],-13.5,21.7
Cc1cn(C)cc1C=C1C(=O)Nc2ccc(S(=O)(=O)N3CCOCC3)cc21 [10726/F06],17.7,17.0
CCOC(=O)c1[nH]c(C=C2C(=O)Nc3ccc(S(=O)(=O)NC)cc32)c(C(=O)OC)c1C [10726/D03],21.6,21.4
O=C1Nc2ccc(I)cc2C1=Cc1cc(O)ccc1O [10727/B10],3.9,29.7
CCOC(=O)c1[nH]c(C=C2C(=O)Nc3ccc(S(=O)(=O)N4CCOCC4)cc32)c(C(=O)OC)c1C [10726/F03],8.3,5.6
O=C1Nc2ccc(CCCl)cc2C1=Cc1ccc(Br)o1 [10726/G05],14.9,6.2
O=C1Nc2c(Br)cc(Br)cc2C1=Cc1ccccc1Sc1ccc(Cl)cc1 [10727/A05],4.2,5.7
COc1ccc(C=C2C(=O)Nc3ccc(Br)c(C)c32)cc1 [10726/C11],-32.2,51.1
CCc1ccc(C=C2C(=O)Nc3ccc(S(=O)(=O)NC)cc32)s1 [10726/D10],14.7,32.2
O=C1Nc2ccc(CCCl)cc2C1=Cc1cc(O)c2c(c1O)CCCC2 [10726/G07],-13.7,-107.6
O=C1Nc2ccc(F)cc2C1=C1C(=O)Nc2ccc(S(=O)(=O)Nc3ccc(C(F)(F)F)cc3)cc21 [10726/E08],4.1,34.1
O=C1Nc2ccc(F)cc2C1=C1C(=O)Nc2ccc(CCCl)cc21 [10726/G08],2.9,14.5
CNS(=O)(=O)c1ccc2c(c1)C(=Cc1cn(C)cc1C)C(=O)N2 [10726/D06],16.3,28.4
Cc1c(Br)ccc2c1C(=Cc1cc(Cl)cc(Br)c1O)C(=O)N2 [10727/C04],0.2,23.2
CNS(=O)(=O)c1ccc2c(c1)C(=Cc1ccc(OC)cc1)C(=O)N2 [10726/D11],10.5,30.9
O=C1Nc2ccc(S(=O)(=O)Nc3ccc(C(F)(F)F)cc3)cc2C1=Cc1cc(O)c2c(c1O)CCCC2 [10726/E07],-40.0,-12.1
COc1ccc(C=C2C(=O)Nc3ccc(S(=O)(=O)N4CCOCC4)cc32)cc1 [10726/F11],13.6,25.2

# Reference: patent EP1247803A2, “Indolinone compounds suitable for modulation of protein kinases” (Sugen, Inc., priority 1996, dated 1998)
